According to patent US8343488B2, “Diagnosis and treatment of human dormancy-related sequellae” (priority 2002, dated 2013):
Where two headings read alike, the source gives them in different places.

What was measured:
[1] = test system: SLE, hypocomplementemic urticarial vasculitis; conditions: in vivo
[2] = test system: Cpn infected macrophages; conditions: in vitro; cited from earlier work
[3] = cited from earlier work
[4] = test system: recurrent bronchitis; test: Case report: post-radiation recurrent bronchitis, antibacterial and antifungal therapy; format: in vivo, human; conditions: 500 mg QD #20; sputum positive for Klebsiella pneumoniae
Description: It is generally known that ACC is not usually sensitive to chemotherapy or standard […] beam radiation. Higher energy radiation doses, such as neutron beam radiation, have shown some promise and referral to the Cancer Center for radiation treatment was arranged. Under the care of a physician, 16 sessions of neutron beam radiation were provided, followed by two sessions of endotracheal brachytherapy with proton radiation. The patient tolerated the radiation relatively well and returned to work. They were warned that chronic bronchitis might follow airway radiation from the loss of salivary cells and ciliary cells in the bronchus. The patient was screened for recurrence twice yearly with neck MRI and lung CT for 3 years and there was no evidence of recurrence. Post radiation year 4 brought recurrent bronchitis that would remit temporarily with antibiotic therapy.
Bronchoscopy was performed in January of 2004 to better determine the source of recurrent bronchitis. There was no evidence of cancer recurrence (FIG. 1). […] Brochoscopic washings were also sent for fungal cultures. The patient's IgG levels to Penicillium and Aspergillus were elevated, while the routine fungal cultures from bronchial washings were negative. […] The patient reported reduced fatigue, reduced inhalant allergies and a slight reduction in volume of sputum production. […]

[5] = test system: Alzheimer's dementia; test: Case report: DRS-2 in a patient with Alzheimer's dementia; conditions: human, in vivo
Description: A retired attorney with Alzheimer's dementia was tested with the DRS-2 and found to be in the first percentile overall before T3 treatment and in the 25th percentile after 3 months of slow-release T3 therapy. Some parameters such as “conceptualization” increase dramatically from the 4th to the 50th percentile and “attention” improved from the 35th to the 89th percentile. […] Serology for Chlamydia pneumoniae confirmed both IgG and IgA antibodies (consistent with chronic or relapsing infection) and treatment with antibiotic medication has provided additional improvement in cognitive function. Prophylactic treatment with low dose antifungal medication is a component of this treatment.

[6] = test system: seropositive RA; test: Case report: Chlamydia pneumoniae-related rheumatoid arthritis; format: in vivo, human; conditions: low dose
Description: A person with seropositive RA with joint swelling in their hands, elbows, knees and feet had negative serology for Chlamydia pneumoniae infection, along with elevated rT3/fT3 ratio and symptoms of fibromyalgia. They were initially treated with immunosuppressive medication including Prednisone 20 mg QD, Methotrexate 15 mg Qweek, antiTNF therapy with Humira injections twice monthly with limited response of less than ACR 20. […] After failing immunosuppressive therapy, a course of antibiotics designed to treat Chlamydia pneumoniae infection was prescribed. The antibiotic protocol is consistent with that recommended by Dr. Charles Stratton of Vanderbilt University for Chlamydia pneumoniae infection. […] This example illustrates the unreliable nature of currently available tests for Chlamydia pneumoniae infection and that patients with autoimmune disease with negative tests for Chlamydia pneumoniae infection are likely to have seronegative Chlamydia pneumoniae infection and respond to antibiotics. The use of T3 and antifungal medication in conjunction with antibiotic treatment has been beneficial.

[7] = test system: stage-4 metastatic breast cancer; test: Case report: antibiotic treatment of metastatic breast cancer; format: in vivo, human
Description: A person was diagnosed with stage-4 metastatic breast cancer with bone, pelvic and lung involvement. Treatment was initiated on Jan. 23, 2005 with Amoxicillin 500 mg 1 QD, Ketek 400 mg 1 QD, Flagyl 500 mg 2 BID. The dose of Flagyl was […] to 500 mg 1 BID on Feb. 1, 2005. By Feb. […] Hospitalization was necessary. […] The attending physicians presumed the cause of their condition was C. difficile related despite the negative tests and treated them with metronidazole. […] They were encouraged to discontinue antibiotic treatment and enter hospice for palliative care.

[8] = test system: SLE, hypocomplementemic urticarial vasculitis; test: Case report: treatment of systemic lupus erythematosus
[9] = test system: pancreatic cancer; conditions: in vivo
[10] = test system: stage 4-metastatic pancreatic cancer; test: Case report: antibiotic treatment of pancreatic cancer (Example 3); format: in vivo, human; conditions: before antibiotic treatment
Description: Ascites had developed and paracentesis was performed 3 days prior to our first visit. They were having difficulty breathing and eating due to abdominal distention from ascites. […] Treatment with Amoxicillin 500 mg 1 QD, Ketek 500 mg 1 QD, and Flagyl 500 mg 1-2 QD was initiated. […] 4, 2005 and was tolerating the above protocol. Their lab results from Jan. […] 27, 2004:
The dose of Flagyl was increased to 1500 mg on Jan. […] 27, 2005.

Cc1oncc1C(=O)Nc1ccc(C(F)(F)F)cc1 [Arava]
tolerability of trial [1]: poorly tolerated

O=C1O[C@H]([C@@H](O)CO)C(O)=C1O [Ascorbic acid]
effect on Cpn in infected macrophages [2]: driving the organism into cryptic phase
half life [3]: 30 min

C[C@H]1COc2c(N3CCN(C)CC3)c(F)cc3c(=O)c(C(=O)O)cn1c23 [Levoquin]
sputum production [4]: reduced sputum production for three weeks

N[C@@H](Cc1cc(I)c(Oc2ccc(O)c(I)c2)c(I)c1)C(=O)O [T3, triiodothyronine]
effect of discontinuation of supplementation [5]: worsening of Alzheimer's symptoms
fatigue and muscle pain [6]: fatigue and muscle pain improved

CN[C@H](CC(C)C)C(=O)N[C@H]1C(=O)N[C@@H](CC(N)=O)C(=O)N[C@H]2C(=O)N[C@H]3C(=O)N[C@H](C(=O)N[C@H](C(=O)O)c4cc(O)cc(O)c4-c4cc3ccc4O)[C@H](O)c3ccc(c(Cl)c3)Oc3cc2cc(c3O[C@@H]2O[C@H](CO)[C@@H](O)[C@H](O)[C@H]2O[C@H]2C[C@](C)(N)[C@H](O)[C@H](C)O2)Oc2ccc(cc2Cl)[C@H]1O [Vancomycin]
symptoms after switch ([7]; in hospital): symptoms gradually improved six days later

CCN(CCO)CCCC(C)Nc1ccnc2cc(Cl)ccc12 (stereo not shown) [hydroxychloroquine]
synovitis, hypocomplementemic urticarial rash and proteinuria ([8]; before October 2003): responding to treatment

CN(Cc1cnc2nc(N)nc(N)c2n1)c1ccc(C(=O)N[C@@H](CCC(=O)O)C(=O)O)cc1 [methotrexate]
tolerability of trial ([8]; additional immunosuppressive therapy): poorly tolerated

Cc1ncc([N+](=O)[O-])n1CCO [metronidazole]
tolerability of increased dose [9]: well tolerated
adverse reaction ([7]; after one week of increased doses): severe depression, hypotension, hypothermia, emesis and diarrhea
symptoms of presumed C. difficile diarrhea ([7]; in hospital, C. difficile tests negative): symptoms did not remit

CCCCCOC(=O)Nc1nc(=O)n([C@@H]2O[C@H](C)[C@@H](O)[C@H]2O)cc1F [zoloda]
outcome of chemotherapy [10]: failed
